Assay results from PubChem BioAssay AID330 (DTP/NCI, 2004).
Several values for one entry are separate records, joined by “and”; a condition that tells them apart may be missing. Equal entries are not always repeated. Inconclusive results and toxic doses are left out. Rule for the calls: active = survival T/C of 150% or more; inactive = T/C below 125% in these data.

System: P388 leukemia ip, CD2F1 mice, survival T/C
Assay: NCI In Vivo Anticancer Drug Screen. Data for tumor model P388 Leukemia (intraperitoneal) in CD2F1 (CDF1) mice
Settings: endpoint: median survival time, higher = longer survival
Outline: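 Mice carrying the transplanted tumor received test compound or vehicle. Survival was recorded in each group, and the value is the treated-group measurement divided by that of the vehicle-treated control group.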

[1] = dose: 200.0 mg/kg/injection, schedule: Q04DX003 (ip), vehicle: saline with Tween-80
[2] = dose: 200.0 mg/kg/injection, schedule: Q01DX005 (ip), vehicle: saline with Tween-80
[3] = dose: 50.0 mg/kg/injection, schedule: Q01DX009 (ip), vehicle: saline with Tween-80
[4] = dose: 100.0 mg/kg/injection, schedule: Q01DX009 (ip), vehicle: saline with Tween-80
[5] = dose: 200.0 mg/kg/injection, schedule: Q01DX009 (ip), vehicle: saline with Tween-80
[6] = dose: 100.0 mg/kg/injection, schedule: Q01DX009 (ip), vehicle: Klucel (hydroxypropylcellulose) (HPC)

Measured: T/C

CC(=O)O[C@H]1CC[C@@]2(C)C(=CC[C@@H]3[C@@H]2CC[C@]2(C)C(=NCCCN4CCOCC4)CC[C@@H]32)C1
inactive: dose: 50.0 mg/kg/injection, schedule: Q01DX005 (ip), vehicle: Klucel (hydroxypropylcellulose) (HPC) 105 % of control | dose: 100.0 mg/kg/injection, schedule: Q01DX005 (ip), vehicle: Klucel (hydroxypropylcellulose) (HPC) 101 % of control | dose: 200.0 mg/kg/injection, schedule: Q01DX005 (ip), vehicle: Klucel (hydroxypropylcellulose) (HPC) 99 % of control

CC1CC=C(C(=O)N2CCOCC2)C1 (stereo not drawn)
inactive: dose: 50.0 mg/kg/injection, schedule: Q04DX003 (ip), vehicle: Klucel (hydroxypropylcellulose) (HPC) 103 % of control | dose: 100.0 mg/kg/injection, schedule: Q04DX003 (ip), vehicle: Klucel (hydroxypropylcellulose) (HPC) 105 % of control | dose: 200.0 mg/kg/injection, schedule: Q04DX003 (ip), vehicle: Klucel (hydroxypropylcellulose) (HPC) 101 % of control

CCCCN(CCCC)C(=N)c1c(OC)cccc1OC
inactive: dose: 0.78 mg/kg/injection, schedule: Q01DX005 (ip), vehicle: saline 104 % of control | dose: 1.56 mg/kg/injection, schedule: Q01DX005 (ip), vehicle: saline 99 % of control | dose: 3.12 mg/kg/injection, schedule: Q01DX005 (ip), vehicle: saline 96 % of control

CC1C(=O)OC2CCN3CC4OC4(COC(=O)C(C)(O)C1(C)O)C23 (stereo not drawn)
inactive: dose: 132.0 mg/kg/injection, schedule: Q04DX003 (ip), vehicle: saline with Tween-80 90 % of control | [1] 110 % of control | dose: 300.0 mg/kg/injection, schedule: Q04DX003 (ip), vehicle: saline with Tween-80 100 % of control

O=C1OCCCCCCOC(=O)c2ccccc2SSc2ccccc21
inactive: dose: 12.5 mg/kg/injection, schedule: Q01DX001 (ip), vehicle: saline with Tween-80 101 % of control | dose: 25.0 mg/kg/injection, schedule: Q01DX001 (ip), vehicle: saline with Tween-80 94 % of control | dose: 50.0 mg/kg/injection, schedule: Q01DX001 (ip), vehicle: saline with Tween-80 94 % of control | dose: 200.0 mg/kg/injection, schedule: Q01DX001 (ip), vehicle: saline with Tween-80 88 % of control | dose: 400.0 mg/kg/injection, schedule: Q01DX001 (ip), vehicle: saline with Tween-80 90 % of control

Cc1ccc2c(c1)C(=O)c1c(ccc3ccccc13)C2=O
inactive: dose: 50.0 mg/kg/injection, schedule: Q01DX005 (ip), vehicle: saline with Tween-80 95 % of control | dose: 100.0 mg/kg/injection, schedule: Q01DX005 (ip), vehicle: saline with Tween-80 100 % of control | [2] 104 % of control

N#Cc1cnn(-c2cc(Cl)ccc2Cl)c1N
inactive: [3] 99 % of control and 95 % of control and 98 % of control | [4] 101 % of control and 103 % of control and 92 % of control | [5] 104 % of control and 105 % of control and 123 % of control

CN(C)CCCNC(=O)c1cccc2cccc(C(=O)O)c12
inactive: dose: 60.0 mg/kg/injection, schedule: Q01DX005 (ip), vehicle: saline 97 % of control | dose: 120.0 mg/kg/injection, schedule: Q01DX005 (ip), vehicle: saline 101 % of control | dose: 240.0 mg/kg/injection, schedule: Q01DX005 (ip), vehicle: saline 104 % of control

CC1=CC(=O)[C@@H](O)[C@@]2(C)C1C[C@H]1OC(=O)[C@H](C/C=C(/C)C(C)C)[C@H]3C(C)C(O)C4(O)OC[C@@]31C42 (stereo partly drawn)
inactive: dose: 1.0 mg/kg/injection, schedule: Q01DX005 (ip), vehicle: saline with Tween-80 100 % of control | dose: 2.0 mg/kg/injection, schedule: Q01DX005 (ip), vehicle: saline with Tween-80 96 % of control | dose: 4.0 mg/kg/injection, schedule: Q01DX005 (ip), vehicle: saline with Tween-80 95 % of control | dose: 8.0 mg/kg/injection, schedule: Q01DX005 (ip), vehicle: saline with Tween-80 101 % of control

COc1cc(Br)c(CC(NC(=O)c2ccccc2)c2ccc(OC)c(OC)c2OC)cc1OC (stereo not drawn)
inactive: [2] 91 % of control

CCSCCC(N)C(=O)O (stereo not drawn)
inactive: dose: 12.5 mg/kg/injection, schedule: Q01DX009 (ip), vehicle: saline with Tween-80 95 % of control | dose: 25.0 mg/kg/injection, schedule: Q01DX009 (ip), vehicle: saline with Tween-80 100 % of control | [3] 100 % of control | dose: 100.0 mg/kg/injection, schedule: Q04DX003 (ip), vehicle: saline with Tween-80 104 % of control | [1] 100 % of control | dose: 400.0 mg/kg/injection, schedule: Q04DX003 (ip), vehicle: saline with Tween-80 109 % of control

O=S1(=O)C(c2ccc(F)cc2)=C(O)c2cc3ccccc3nc21
inactive: [3] 112 % of control | [4] 97 % of control

CC1=C/C(=N\NS(=O)(=O)c2ccc([N+](=O)[O-])cc2)CC(C)(C)C1
inactive: [6] 87 % of control | dose: 200.0 mg/kg/injection, schedule: Q01DX009 (ip), vehicle: Klucel (hydroxypropylcellulose) (HPC) 98 % of control | dose: 400.0 mg/kg/injection, schedule: Q01DX009 (ip), vehicle: Klucel (hydroxypropylcellulose) (HPC) 100 % of control

O=[N+]([O-])c1ccccc1OCC1CO1 (stereo not drawn)
inactive: dose: 25.0 mg/kg/injection, schedule: Q01DX009 (ip), vehicle: Klucel (hydroxypropylcellulose) (HPC) 106 % of control | dose: 50.0 mg/kg/injection, schedule: Q01DX009 (ip), vehicle: Klucel (hydroxypropylcellulose) (HPC) 105 % of control | [6] 105 % of control

CC1(C(=O)OCc2ccccc2)NCCS1 (stereo not drawn)
inactive: [3] 100 % of control | [4] 96 % of control | [5] 109 % of control
